For 2 compounds, EC50 and IC50 results are on record in patent US5958952A, “Substituted phenylamindines, medicaments containing these compounds and process for producing them” (Dr. Karl Thomae GmbH, priority 1995, dated 1999).

The subject of one assay is thrombocyte aggregation. In words: Antithrombotic activity: inhibition of collagen-induced platelet (thrombocyte) aggregation in platelet-rich plasma. The class given is cell-based. Conditions: Homo sapiens, 10 min, platelet-rich plasma from healthy test subjects, incubated with substance at 37° C. for 10 minutes, 50% change in optical density. The procedure:
2. Antithrombotic Activity:
The thrombocyte aggregation is measured by the Born and Cross method (J. Physiol. 170, 397 (1964)) in platelet-rich plasma from healthy test subjects. To inhibit clotting, the blood is mixed with 3.14% sodium citrate in a ratio by volume of 1:10.
Collagen-Induced Aggregation
The progress of the decrease in optical density of the platelet suspension is measured photometrically after the addition of the aggregation-triggering substance and recorded. The rate of aggregation is calculated from the angle of inclination of the density curve. The point on the curve at which there is greatest light permeability is used to calculate the optical density.
The quantity of collagen is selected to be as small as possible but still sufficient to produce an irreversible reaction curve. The standard commercial collagen made by Hormonchemie of Munich is used.
Before the collagen is added, the plasma is incubated with the substance at 37° C. for 10 minutes.
From the measurements obtained, an EC50 was determined graphically corresponding to a 50% change in the optical density in terms of inhibiting aggregation.

In the next assay the target is human thrombocytes. In words: Inhibiting the binding of ^3 H-BIBU 52 to human thrombocytes. Conditions: human thrombocytes in plasma; ^3 H-BIBU 52 final concentration 5 nM; ambient temperature, 20 minutes; read-out: ^3 H-BIBU-52-binding test IC50. The procedure: 1. Inhibiting the Binding of ^3 H-BIBU 52 to Human Thrombocytes:
A suspension of human thrombocytes in plasma is incubated with ^3 H-BIBU 52 [=(3S,5S)-5-[(4'-amidino-4-biphenylyl)oxymethyl]-3-[(carboxy)methyl]-2-pyrrolidinone[3-^3 H-4-biphenylyl]], replacing the ligand ^125 I-fibrinogen known from the literature, (cf. DE-A-4,214.245) and various concentrations of the substance to be tested. The free and bound ligand is separated off by centrifuging and quantitatively determined by scintillation counting. From the results obtained, the inhibition of ^3 H-BIBU 52 binding by the test substance is determined.
In order to do this, donor blood is taken from an anticubital vein and anticoagulated with trisodium citrate (final concentration 13 mM). The blood is centrifuged for 10 minutes at 170×g and the supernatant platelet-rich plasma (PRP) is removed. The residual blood is sharply centrifuged off once more in order to obtain plasma. The PRP is diluted 1:10 with autologous plasma. 750 μl are incubated with 50 μl of physiological saline, 100 μl of test substance solution, 50 μl of ^14 C sucrose (3.700 Bq) and 50 μl of ^3 H-BIBU 52 (final concentration: 5 nM) at ambient temperature for 20 minutes. […] 100 μl of it are measured in order to determine the free ligand. The pellet is dissolved in 500 μl of 0.2N NaOH, 450 μl are mixed with 2 ml of scintillator and 25 μl of 5N HCl and measured. […]

The structures appear in SMILES notation.

Broadly, the EC50 is the midpoint of the concentration-response curve. The low end stands for greater potency, the high end for weaker potency. A word on the IC50: it is the point on the concentration scale where inhibition reaches its midpoint. In turn, `N=C(N)c1ccc(NC(=O)CCN2CCC(CC(=O)O)CC2)cc1` [1(1), 1-[2-[(4-amidinophenyl)aminocarbonyl]ethyl]-4-carboxymethyl-piperidine] registered a concentration for a half-maximal effect (EC50) in the assay on thrombocyte aggregation of 310 nM. Also, at human thrombocytes, the concentration for half-maximal inhibition (IC50) is 51 nM.

In the assay on thrombocyte aggregation, `N=C(N)c1ccc(NC(=O)CCC2CCN(CC(=O)O)CC2)cc1` [Example 1, 4-[2-[(4-amidinophenyl)aminocarbonyl]ethyl]-1-carboxymethyl-piperidine] had an EC50 of 37 nM. In addition, the 50% inhibitory concentration (IC50) on human thrombocytes is 3.7 nM.
